Patent publication US10947252B2, “Inhibitors of KEAP1-Nrf2 protein-protein interaction” (Janssen Pharmaceutica NV, priority 2018, dated 2021)
Where a name gives a salt, the structure may show the parent alone.

Key:
[1] = molecular target: Kelch domain of human KEAP1 (321-624 aa) (Homo sapiens (Human), UniProt Q14145); test: KEAP1 KELCH ThermoFluor binding assay; conditions: KEAP Kelch […], 1,8-ANS, pH 7.0, average of results obtained, read-out: Tf Kd;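 further: Ligand-induced melting temperature shift of E. coli-expressed KEAP1 Kelch protein, Kd estimated from concentration-response curves of ΔTm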
[2] = test system: Glo-Response ARE-luc2P HEK293 cell line; test: ARE luciferase reporter cell-based assay; conditions: Homo sapiens, HEK293, 24 h, average of results obtained;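 further: luciferase signal tracks Nrf2 activation of the ARE once compounds disrupt KEAP1-Nrf2 binding, read with One-Glo reagent, DMSO serving as low control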

Kelch domain of human KEAP1 (321-624 aa), sequence (Q14145 321-624): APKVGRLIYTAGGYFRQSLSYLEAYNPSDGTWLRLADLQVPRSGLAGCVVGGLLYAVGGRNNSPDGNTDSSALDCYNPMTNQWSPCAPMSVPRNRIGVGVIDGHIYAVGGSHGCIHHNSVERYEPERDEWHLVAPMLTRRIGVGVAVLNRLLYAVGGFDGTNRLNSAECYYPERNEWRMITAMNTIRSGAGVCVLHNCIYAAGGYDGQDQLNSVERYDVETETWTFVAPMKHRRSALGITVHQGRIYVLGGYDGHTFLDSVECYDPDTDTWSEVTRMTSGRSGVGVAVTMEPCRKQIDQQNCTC

Structure (SMILES) | Kd [1] [nM] | EC50 [2] [nM]
CC[C@@H]1CN(Cc2nc(C(CC(=O)O)c3ccc4c(nnn4C4CC4)c3C)ccc2C)S(=O)(=O)c2cccnc2O1 (mixture of isomers) [Example 174, (R/S)-3-(1-Cyclopropyl-4-methyl-1H-benzo[d][1,2,3]triazol-5-yl)-3-(6-(((R)-4-ethyl-1,1-dioxido-3,4-dihydro-2H-pyrido[2,3-b][1,4,5]oxathiazepin-2-yl)methyl)-5-methylpyridin-2-yl)propanoic Acid] | < 1 | 15
Cc1cnc2c(c1)S(=O)(=O)N(Cc1cc([C@H](c3ccn4c(C(F)(F)F)nnc4c3C)C(C)(C)C(=O)O)ccc1C)CC1(CCNCC1)O2 (single isomer, unassigned) [Example 341, (*R)-2,2-Dimethyl-3-(4-methyl-3-((8′-methyl-1′,1′-dioxidospiro[piperidine-4,4′-pyrido[2,3-b][1,4,5]oxathiazepin]-2′(3′H)-yl)methyl)phenyl)-3-(8-methyl-3-(trifluoromethyl)-[1,2,4]triazolo[4,3-a]pyridin-7-yl)propanoic Acid] | 18800 | > 20
Cc1ccc([C@@H](CC(=O)O)c2ccn3c(C(F)(F)F)nnc3c2C)cc1CN1C[C@H]2CCCN2c2ccccc2S1(=O)=O (single isomer, unassigned) [Example 267, (*R)-3-(3-(((R)-5,5-Dioxido-7a,8,9,10-tetrahydrobenzo[f]pyrrolo[2,1-d][1,2,5]thiadiazepin-6(7H)-yl)methyl)-4-methylphenyl)-3-(8-methyl-3-(trifluoromethyl)-[1,2,4]triazolo[4,3-a]pyridin-7-yl)propanoic Acid] | < 1 | 90.4
CC[C@@H]1CN(Cc2cc(C(CC(=O)O)c3cc(OC(F)F)c4c(c3)nnn4C)ccc2C)S(=O)(=O)c2cccnc2O1 (mixture of isomers) [Example 249, 3-(7-(Difluoromethoxy)-1-methyl-1H-benzo[d][1,2,3]triazol-5-yl)-3-(3-(((R)-4-ethyl-1,1-dioxido-3,4-dihydro-2H-pyrido[2,3-b][1,4,5]oxathiazepin-2-yl)methyl)-4-methylphenyl)propanoic Acid and its Trifluoroacetic Acid Salt] | < 1 | 28.6
Cc1cnc2c(c1)S(=O)(=O)N(Cc1cc([C@@H](c3ccn4c(C5CC5)nnc4c3C)C(C)(C)C(=O)O)ccc1C)CC1(COC1)O2 (single isomer, unassigned) [Example 622, (*S)-3-(3-Cyclopropyl-8-methyl-[1,2,4]triazolo[4,3-a]pyridin-7-yl)-2,2-dimethyl-3-(4-methyl-3-((8′-methyl-1′,1′-dioxidospiro[oxetane-3,4′-pyrido[2,3-b][1,4,5]oxathiazepin]-2′(3′H)-yl)methyl)phenyl)propanoic Acid] | 2530 | 3230
Cc1ccc([C@@H](CC(=O)O)c2ccc3c(nnn3CC3CC3)c2C)cc1CN1C[C@]2(C)CCCN2c2ncccc2S1(=O)=O (single isomer, unassigned) [Example 13, (*R)-3-(1-(Cyclopropylmethyl)-4-methyl-1H-benzo[d][1,2,3]triazol-5-yl)-3-(4-methyl-3-(((*S)-7a-methyl-5,5-dioxido-7a,8,9,10-tetrahydropyrido[2,3-f]pyrrolo[2,1-d][1,2,5]thiadiazepin-6(7H)-yl)methyl)phenyl)propanoic Acid] | 0.079 | 37.8
Cc1c([C@@H](CC(=O)O)c2ccc(Cl)c(CN3CC4(COC4)Oc4ncccc4S3(=O)=O)c2)ccn2c(C(F)(F)F)nnc12 (single isomer, unassigned) [Example 88, (*S)-3-(4-Chloro-3-((1′,1′-dioxoidospiro[oxetane-3,4′-pyrido[2,3-b][1,4,5]oxathiazepin]-2′(3′H)-yl)methyl)phenyl)-3-(8-methyl-3-(trifluoromethyl)-[1,2,4]triazolo[4,3-a]pyridine-7-yl)propanoic Acid] | 0.01 | > 20000
